Results reported in PMC3050433, “The effects of maribavir on the autophosphorylation of ganciclovir resistant mutants of the cytomegalovirus UL97 protein” (Herpesviridae, 2010).
Changes are numbered by the printed parent chain. Entries after “also recorded” stand apart in the source; their conditions may differ.

Tests used:
Details in all cases: wild type normalised to 100%
UL97 D456A = target: T1, UL97 D456A (Human cytomegalovirus, UniProt Q68101, D456A); assay: GCV phosphorylation in baculovirus-infected Sf21 insect cells, D456A; assay type: cell-based
T1 construct: PCR reaction to generate the full length UL97; honey bee melittin secretion signal (N); made in house; host or cells: Sf21 insect cells, recombinant baculovirus (pMelBac C)
T1 sequence (Q68101 1-707 D456A): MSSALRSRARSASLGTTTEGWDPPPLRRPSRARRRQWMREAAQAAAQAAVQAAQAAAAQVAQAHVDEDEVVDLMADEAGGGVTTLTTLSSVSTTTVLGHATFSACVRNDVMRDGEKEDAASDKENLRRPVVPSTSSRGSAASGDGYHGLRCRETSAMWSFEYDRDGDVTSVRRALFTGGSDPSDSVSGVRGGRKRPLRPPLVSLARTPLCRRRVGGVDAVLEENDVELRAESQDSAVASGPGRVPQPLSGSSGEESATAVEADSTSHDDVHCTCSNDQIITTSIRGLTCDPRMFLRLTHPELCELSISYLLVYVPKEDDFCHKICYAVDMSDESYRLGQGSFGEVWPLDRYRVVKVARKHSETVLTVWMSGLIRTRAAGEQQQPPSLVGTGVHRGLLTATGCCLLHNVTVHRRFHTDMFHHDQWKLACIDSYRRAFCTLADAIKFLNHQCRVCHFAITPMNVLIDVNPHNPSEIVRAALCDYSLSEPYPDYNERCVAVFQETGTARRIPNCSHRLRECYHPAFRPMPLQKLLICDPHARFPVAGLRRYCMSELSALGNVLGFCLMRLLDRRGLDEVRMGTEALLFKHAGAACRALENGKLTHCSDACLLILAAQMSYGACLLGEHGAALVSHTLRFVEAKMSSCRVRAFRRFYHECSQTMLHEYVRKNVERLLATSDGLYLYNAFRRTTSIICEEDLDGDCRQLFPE
Protocol: (§1) Sf21 insect cells were infected with wild type or mutant UL97 recombinant baculoviruses at an m.o.i. of 10. After 48 h incubation at 28°C, the culture medium was replaced with fresh medium containing 1.0 mM GCV and [^3H] GCV (0.55 Mbq, Moravek Radiochemicals, California, USA) After a further 24 hours of incubation, nucleotides were harvested by acid hydrolysis (0.5 M perchloric acid), neutralisation to pH 7.5 (2.5 M KOH, 1.5 M KH2PO4) and centrifugation (13000 × g). 50 μl aliquots of supernatant were spotted onto 20 mm diameter DEAE-coated DE81 chromatographic paper discs and the monophosphorylated GCV allowed to bind. The discs were washed twice in 3 ml 10 mM ammonium acetate for 10 minutes and twice in 95% ethanol for 10 minutes. After drying 5 ml of sigmafluor was added (Sigma Chemicals, Dorset, UK) and the radioactivity determined by liquid scintillation counting.

UL97 N461G = assay: GCV phosphorylation in baculovirus-infected Sf21 insect cells, N461G; assay type: cell-based, human cytomegalovirus
Protocol: as §1

UL97 K355Q = target: T2, UL97 K355Q (Human cytomegalovirus, UniProt Q68101, K355Q); assay: GCV phosphorylation in baculovirus-infected Sf21 insect cells, K355Q; assay type: cell-based
T2 construct: PCR reaction to generate the full length UL97; honey bee melittin secretion signal (N); expressed in transfected cells; host or cells: Sf21 insect cells infected with recombinant baculovirus
T2 sequence (Q68101 1-707 K355Q): T1 sequence (Q68101 1-707 D456A) with K355Q, A456D
Protocol: as §1

## Nc1nc(O)c2ncn(COC(CO)CO)c2n1 [GCV, ganciclovir]
UL97 D456A
  GCV phosphorylation relative to wild type UL97: no effect on GCV phosphorylation
UL97 N461G
  GCV phosphorylation relative to wild type UL97: complete loss of GCV kinase activity
UL97 K355Q
  GCV phosphorylation relative to wild type UL97: unable to phosphorylate GCV; also recorded: complete loss of GCV kinase activity
